One data set can be described thus: in vivo. To be noted: rat, po, 3 mg/kg.
The target in the next data set is T1, FLT3 (Homo sapiens, UniProt P36888).
T1 sequence (P36888 27-993): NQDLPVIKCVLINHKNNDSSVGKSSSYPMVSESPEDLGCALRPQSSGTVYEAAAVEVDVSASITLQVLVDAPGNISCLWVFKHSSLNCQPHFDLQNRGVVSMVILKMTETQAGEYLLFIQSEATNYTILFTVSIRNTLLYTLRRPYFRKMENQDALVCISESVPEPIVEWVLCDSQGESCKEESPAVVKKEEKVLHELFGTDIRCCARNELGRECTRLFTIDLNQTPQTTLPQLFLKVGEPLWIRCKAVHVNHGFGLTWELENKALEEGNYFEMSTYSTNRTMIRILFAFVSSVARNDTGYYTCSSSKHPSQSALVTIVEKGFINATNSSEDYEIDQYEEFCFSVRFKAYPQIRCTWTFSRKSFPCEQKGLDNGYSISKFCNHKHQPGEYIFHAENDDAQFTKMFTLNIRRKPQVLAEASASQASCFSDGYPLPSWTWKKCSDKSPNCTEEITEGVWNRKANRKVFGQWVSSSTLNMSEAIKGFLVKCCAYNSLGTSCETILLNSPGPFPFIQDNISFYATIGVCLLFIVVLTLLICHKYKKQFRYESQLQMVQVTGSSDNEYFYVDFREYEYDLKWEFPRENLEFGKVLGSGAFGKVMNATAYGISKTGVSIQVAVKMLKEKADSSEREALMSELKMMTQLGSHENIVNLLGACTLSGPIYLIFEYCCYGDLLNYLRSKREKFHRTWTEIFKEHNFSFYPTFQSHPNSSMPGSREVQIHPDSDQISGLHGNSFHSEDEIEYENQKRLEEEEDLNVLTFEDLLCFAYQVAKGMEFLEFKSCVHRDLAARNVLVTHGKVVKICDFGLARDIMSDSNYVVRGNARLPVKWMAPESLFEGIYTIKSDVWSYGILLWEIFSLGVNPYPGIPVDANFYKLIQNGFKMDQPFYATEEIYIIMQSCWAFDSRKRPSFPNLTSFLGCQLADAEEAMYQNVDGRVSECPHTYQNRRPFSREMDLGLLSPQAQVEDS
The data set can be described thus: FLT3 kinase activity inhibition assay (Mobility shift assay). In kind it is biochemical. Here is the method:
Testing compound inhibitory activity against FLT3 and AXL kinases using Mobility shift assay. Compounds were dissolved in 100% DMSO to prepare 10 mM stock solutions. Prepare 1× Kinase Buffer. Test compounds were serially diluted in 5-fold gradients, and 250 nL of 100× final concentration compounds were transferred to destination plate 3573 using an Echo 550 liquid handler. A 2.5× final concentration kinase solution was prepared in 1× Kinase Buffer. Then, 10 µL of the 2.5× kinase solution was added to both compound wells and positive control wells, while 10 µL of 1× Kinase Buffer was added to negative control wells. The plate was centrifuged at 1000 rpm for 30 seconds, mixed by orbital shaking, and incubated at room temperature for 10 minutes. A 5/3× final concentration mixture of ATP and Kinase Substrate 25 was prepared in 1× Kinase Buffer. The reaction was initiated by adding 15 µL of the 5/3× ATP/substrate mixture. The 384-well plate was centrifuged at 1000 rpm for 30 seconds, mixed by shaking, and incubated at room temperature for 120 minutes. The kinase reaction was terminated by adding 30 µL stop solution, followed by centrifugation at 1000 rpm for 30 seconds and mixing. Conversion rates were measured using a Caliper EZ Reader. %Inhibition = (Conversion%_max - Conversion%_sample)/(Conversion%_max - Conversion%_min) × 100. Where: Conversion%_sample: Conversion rate reading of test samples; Conversion%_min: Mean value of negative control wells (representing conversion rate without enzyme activity); Conversion%_max: Mean value of positive control wells (representing conversion rate without compound inhibition). Dose-response curves were plotted with log(concentration) as the X-axis and percentage inhibition as the Y-axis. Curve fitting was performed using GraphPad Prism 5 software with the "log(inhibitor) vs. response - Variable slope" model to derive IC50 values for each compound's enzyme inhibitory activity. The fitting formula was: Y = Bottom + (Top - Bottom)/(1 + 10^((LogIC50 - X) × HillSlope)).

The target of the next data set is HPK1 kinase (Homo sapiens, UniProt Q92918). The data set can be described thus: HPK1 kinase activity inhibition assay (Mobility shift assay). The class given is biochemical. As for the experimental part: Measure compound inhibitory activity against HPK1 kinase using Mobility shift assay. Compounds were dissolved in 100% DMSO to prepare 10 mM stock solutions. 1× Kinase buffer was prepared. Test compounds were serially diluted in 5-fold gradients, and 250 nL of 100× final concentration compounds were transferred to destination plate 3573 using an Echo 550 liquid handler. A 2.5× final concentration kinase solution was prepared in 1× Kinase Buffer. 10 µL of the 2.5× kinase solution was added to both compound wells and positive control wells, while 10 µL of 1× Kinase buffer was added to negative control wells. The plate was centrifuged at 1000 rpm for 30 seconds, mixed by orbital shaking, and incubated at room temperature for 10 minutes. A 5/3× final concentration mixture of ATP and Kinase substrate 25 was prepared in 1× Kinase buffer. 15 µL of the 5/3× ATP/substrate mixture was added to initiate the reaction. The 384-well plate was centrifuged at 1000 rpm for 30 seconds, mixed by shaking, and incubated at room temperature for 120 minutes. The kinase reaction was terminated by adding 30 µL stop solution, followed by centrifugation at 1000 rpm for 30 seconds and mixing. Conversion rates were measured using a Caliper EZ Reader. The inhibition percentage was calculated as: %Inhibition = (Conversion%_max - Conversion%_sample)/(Conversion%_max - Conversion%_min) × 100. Where Conversion%_sample: Conversion rate reading of test samples; Conversion%_min: Mean value of negative control wells (representing conversion rate without enzyme activity); Conversion%_max: Mean value of positive control wells (representing conversion rate without compound inhibition). Dose-response curves were plotted with log(concentration) as the X-axis and percentage inhibition as the Y-axis. Curve fitting was performed using GraphPad Prism 5 software with the "log(inhibitor) vs. response - Variable slope" model to derive IC50 values for each compound's enzyme inhibitory activity. The fitting formula was: Y = Bottom + (Top - Bottom)/(1 + 10^((LogIC50 - X) × HillSlope)).
HPK1 kinase, sequence (Q92918 whole entry): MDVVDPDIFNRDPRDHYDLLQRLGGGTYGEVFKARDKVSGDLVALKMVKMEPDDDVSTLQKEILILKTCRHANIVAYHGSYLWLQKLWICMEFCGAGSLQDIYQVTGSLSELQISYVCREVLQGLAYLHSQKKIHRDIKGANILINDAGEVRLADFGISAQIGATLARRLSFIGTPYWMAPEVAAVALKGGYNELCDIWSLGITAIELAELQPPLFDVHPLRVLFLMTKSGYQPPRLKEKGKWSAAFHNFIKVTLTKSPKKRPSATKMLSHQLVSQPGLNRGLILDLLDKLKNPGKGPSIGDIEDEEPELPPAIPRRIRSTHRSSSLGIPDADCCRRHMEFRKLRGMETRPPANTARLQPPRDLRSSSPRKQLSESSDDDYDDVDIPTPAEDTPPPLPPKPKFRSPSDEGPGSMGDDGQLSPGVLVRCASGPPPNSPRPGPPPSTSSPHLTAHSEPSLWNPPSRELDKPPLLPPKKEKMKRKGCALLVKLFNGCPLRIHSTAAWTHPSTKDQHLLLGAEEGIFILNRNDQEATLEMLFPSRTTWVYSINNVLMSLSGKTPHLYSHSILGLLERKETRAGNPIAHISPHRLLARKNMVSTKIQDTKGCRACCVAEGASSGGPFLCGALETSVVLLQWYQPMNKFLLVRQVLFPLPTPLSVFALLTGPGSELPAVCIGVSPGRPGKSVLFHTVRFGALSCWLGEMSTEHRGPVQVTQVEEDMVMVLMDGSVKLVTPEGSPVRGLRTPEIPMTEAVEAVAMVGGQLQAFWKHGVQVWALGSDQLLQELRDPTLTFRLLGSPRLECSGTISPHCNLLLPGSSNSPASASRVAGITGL

In the next data set the target is FAK kinase (Homo sapiens, UniProt Q05397). The data set can be described thus: FAK kinase activity inhibition assay, method A (HTRF) and method B (Lantha screen). The class given is biochemical. As for the experimental part: The HTRF method was used to evaluate the inhibitory activity of the compounds against FAK kinase. […]. The reaction conditions were: FAK kinase at 0.1 ng/µL; ATP 10 µM; substrate concentration 1 µM. Compounds were serially diluted in DMSO and shaken on a shaker for 20 minutes. Prepare 2× kinase using 1× reaction buffer. Transfer 25 nL compound to a 384-well plate using Echo 655. Add 2.5 µL kinase per well. Seal the plate with sealing film, centrifuge at 1000 rpm for 60 seconds, and incubate at 25°C for 12 hours. Prepare 2× ATP/substrate mix using 1× enzyme reaction buffer and add 2.5 µL 2× ATP/substrate mix per well. Seal the plate with sealing film, centrifuge at 1000 rpm for 60 seconds, and incubate at 25°C for 50 minutes. Prepare 2×XL665 & antibody solution using HTRF detection buffer, and add 5 µL per well. Incubate at 25°C for 60 minutes. Read fluorescence at 620 nm (Cryptate) and 665 nm (XL665). Calculate the ratio per well (Ratio_665/620 nm). % Inhibition = 100% - [(Compound Ratio - Positive Control Ratio)/ (Negative Control Ratio - Positive Control Ratio)] × 100%. IC50 values (half-maximal inhibitory concentration) were calculated by nonlinear regression using GraphPad Prism 7.0. Y = Bottom + (Top - Bottom)/ (1 + 10^ ((LogIC50 - X) × Hill Slope)), where X is the log of compound concentration and Y is the % inhibition.
FAK kinase, sequence (Q05397 whole entry): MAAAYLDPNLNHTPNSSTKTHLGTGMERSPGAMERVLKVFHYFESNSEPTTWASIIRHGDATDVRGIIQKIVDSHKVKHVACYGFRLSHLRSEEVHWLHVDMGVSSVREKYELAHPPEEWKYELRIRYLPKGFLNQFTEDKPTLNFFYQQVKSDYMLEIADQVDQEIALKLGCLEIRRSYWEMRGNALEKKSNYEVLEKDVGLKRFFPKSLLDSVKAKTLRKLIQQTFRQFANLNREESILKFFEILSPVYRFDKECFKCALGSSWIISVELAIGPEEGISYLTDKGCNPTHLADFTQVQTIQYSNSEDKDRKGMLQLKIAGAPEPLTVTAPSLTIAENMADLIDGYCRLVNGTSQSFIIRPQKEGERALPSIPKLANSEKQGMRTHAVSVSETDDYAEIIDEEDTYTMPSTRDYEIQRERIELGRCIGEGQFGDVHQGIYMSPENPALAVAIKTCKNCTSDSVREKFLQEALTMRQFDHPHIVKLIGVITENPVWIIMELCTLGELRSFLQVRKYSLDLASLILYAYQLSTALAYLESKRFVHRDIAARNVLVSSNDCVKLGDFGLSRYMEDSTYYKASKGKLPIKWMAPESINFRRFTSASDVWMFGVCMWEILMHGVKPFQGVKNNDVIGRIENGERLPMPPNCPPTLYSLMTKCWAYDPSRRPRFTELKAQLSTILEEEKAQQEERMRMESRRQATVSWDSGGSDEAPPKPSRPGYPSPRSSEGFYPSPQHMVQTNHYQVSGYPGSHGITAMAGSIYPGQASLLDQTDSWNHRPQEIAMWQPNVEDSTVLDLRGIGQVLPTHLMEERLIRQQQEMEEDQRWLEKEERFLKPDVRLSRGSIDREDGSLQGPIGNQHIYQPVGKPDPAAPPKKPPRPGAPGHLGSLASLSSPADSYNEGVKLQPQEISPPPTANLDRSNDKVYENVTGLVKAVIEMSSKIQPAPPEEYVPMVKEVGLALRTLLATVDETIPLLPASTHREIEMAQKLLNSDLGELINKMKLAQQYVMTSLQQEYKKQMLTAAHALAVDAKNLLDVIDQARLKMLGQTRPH
The Lantha screen assay was used to evaluate the FAK kinase inhibitory activity. Compounds were dissolved in 100% DMSO at 10 mM stock concentration. Prepare 1× kinase buffer (25 mM HEPES, pH 7.5, 0.01 mM Triton, 0.5 mM EGTA, 0.01% Brij-35). Dilute compounds in a gradient, and transfer 5 µL compound into the reaction plate. Prepare 2× kinase solution with 1× Kinase buffer. Add 5 µL kinase solution to compound and positive control wells, and 5 µL 1× Kinase buffer to negative control wells. Mix reaction plate by shaking. Prepare 4× ATP/Fluorescein-polyGT substrate mix with 1× Kinase buffer. Add 2.5 µL substrate solution to initiate the reaction. Shake and incubate at room temperature for 30 minutes. Prepare 2× detection reagent (2 nM antibody, 10 mM EDTA) and add 10 µL per well to stop the reaction. Briefly centrifuge, mix, and incubate for 60 minutes. Read fluorescence at 340 nm excitation and 520 nm/495 nm emission using EnVision. Collect data and calculate 520 nm/495 nm ratio. Calculate the inhibition percentage using the formula: % Inhibition = (Max - Sample Ratio)/(Max - Min) × 100, where min is the mean of negative control wells (no enzyme activity), and max is the mean of positive control wells (DMSO-inhibited conversion rate).Use XLFit Excel add-in version 5.4.0.8 to determine the IC50 values of each compound against the enzyme activity: Y = Bottom + (Top - Bottom)/(1 + (IC50/X)^HillSlope).
For orientation: TR-FRET usually uses a lanthanide donor and a delayed reading to cut background.

pIC50: −log10 of the molar value. Some results are limits rather than exact numbers.

Method for in vivo: Pharmacokinetic parameters were calculated by statistical moment method using WinNonLin 8.0 software, mainly including Tmax, T1/2, Cmax and AUC0-24h.
Animals: Three male SD rats weighing 200-220 g were used. After purchase, they were housed in the laboratory animal center for 2 days before experiment. […] Blood samples were collected at scheduled time points after oral gavage.
Vehicle: 0.4% ethanol + 0.4% Tween 80 + 99.2% (0.5% methylcellulose M450). Preparation of oral gavage solution: The compound was accurately weighed and dissolved in vehicle by ultrasonication for 5 min at room temperature to prepare 0.3 mg/mL drug solution.
Single compound administration was also used to study pharmacokinetics in rats.
Blood sample collection: After oral gavage, blood samples were collected from orbital sinus at 0.25, 0.5, 1, 2, 4, 8, 10 and 24 h. 50 µL plasma was mixed with 200 µL acetonitrile (containing 2 ng/mL verapamil as internal standard). The mixture was vortexed for 3 min, then centrifuged at 20000 rcf for 10 min at 4 °C. The supernatant was analyzed by LC-MS/MS.
Standard curves were established by accurately weighing and preparing compounds at different concentrations for mass spectrometric quantification. Compound concentrations in plasma samples were determined based on standard curves to obtain concentration-time profiles. All measurement data were collected and processed by relevant software. Pharmacokinetic parameters (including Tmax, T1/2, Cmax and AUC0-24h) were calculated by statistical moment method.

As for `CCc1cc2c(cc1Nc1ncc(C(F)(F)F)c(NCCCN3CCOCCC3=O)n1)OC[C@H]1CN(C3COC3)CCN21` [Compound A12R], in “in vivo”, the AUC(0-t) at 24 h came out at 1460 ng·h/mL, the Cmax was 487 ng/mL, the Tmax is 0.5 h and the half-life was 1.76 h.

For `CNC(=O)c1ccccc1Nc1cc(Nc2cc3c(cc2OC)N2CCN(C4CCOCC4)C[C@@H]2CO3)ncc1C(F)(F)F` [Compound D1R], the pIC50 on FLT3 is above 7.52; on HPK1 kinase, above 7.52; against FAK kinase it was above 8.52.

The AUC(0-t) is the area under the concentration-time curve up to a stated or last time point. Higher therefore signals more exposure. As a reminder, the Cmax is the peak of the concentration-time curve. The term Tmax denotes the time from dosing to the highest level. For orientation: half-life means the time needed for the level to fall by half in the phase considered. Higher therefore signals slow loss. A word on the pIC50: it is the negative decadic logarithm of the IC50, by convention in mol/L.

For the origin of these results see EP4653444A1, “FUSED TRICYCLIC COMPOUND AS KINASE INHIBITOR” (Hangzhou Innogate Pharma Co., Ltd., priority 2023, dated 2024).
